The values that follow come from patent US9388153B2, “Secondary amines as therapeutic agents” (Allergan, Inc., priority 2013, dated 2016).

Test [1] addresses T1, EP2 (Homo sapiens, UniProt P43116). Nature of the test: EP2 cAMP functional assay. It is filed as cell-based. Conditions: NA = Not Active. The source says: (§1) U.S. patent application publication No. 20070129552, published on Jun. 7, 2007, incorporated by reference herein, describes the methods used to obtain the in vitro data in Table 1 below.
Test [2] addresses T1, EP2. Nature of the test: EP2 binding (Ki). The conditions noted are these: NA = Not Active; read-out: EP2 Data (EC50 in nM) Ki.
Source text: as §1

Test [3] concerns the target EP4 (Homo sapiens, UniProt P35408). Nature of the test: EP4 binding (KI). Conditions: NA = Not Active; read-out: EP4 data (EC50 in nM) KI.
Source text: as §1

Chain of EP4 (P35408 whole entry): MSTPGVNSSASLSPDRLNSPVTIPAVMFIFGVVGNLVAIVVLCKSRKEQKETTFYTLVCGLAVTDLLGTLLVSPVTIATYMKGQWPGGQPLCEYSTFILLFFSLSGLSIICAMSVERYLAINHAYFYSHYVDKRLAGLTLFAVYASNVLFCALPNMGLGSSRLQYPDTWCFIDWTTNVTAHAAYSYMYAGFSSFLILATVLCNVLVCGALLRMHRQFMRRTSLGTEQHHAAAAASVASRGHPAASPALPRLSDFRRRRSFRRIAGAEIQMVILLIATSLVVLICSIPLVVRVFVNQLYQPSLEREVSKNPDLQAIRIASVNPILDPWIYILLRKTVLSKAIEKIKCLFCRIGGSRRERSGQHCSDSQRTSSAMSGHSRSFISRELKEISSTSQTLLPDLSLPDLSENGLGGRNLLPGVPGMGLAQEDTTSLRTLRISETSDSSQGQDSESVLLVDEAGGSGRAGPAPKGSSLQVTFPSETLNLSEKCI
T1 sequence (P43116 whole entry): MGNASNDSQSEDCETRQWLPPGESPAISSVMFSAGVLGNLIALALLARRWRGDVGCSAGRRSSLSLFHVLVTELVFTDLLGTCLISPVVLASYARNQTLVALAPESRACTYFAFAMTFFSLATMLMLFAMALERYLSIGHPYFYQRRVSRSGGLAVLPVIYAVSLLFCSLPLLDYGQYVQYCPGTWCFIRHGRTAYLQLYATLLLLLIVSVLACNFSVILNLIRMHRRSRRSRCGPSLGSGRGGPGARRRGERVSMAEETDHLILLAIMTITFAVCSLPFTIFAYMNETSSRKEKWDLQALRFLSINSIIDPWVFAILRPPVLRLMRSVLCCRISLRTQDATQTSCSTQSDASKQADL

By EC50 is commonly meant the concentration needed to bring the measured effect to its halfway point. The Ki is a measure of affinity in units of concentration, obtained from inhibition or displacement. `O=C(O)COc1cccc(NC2CCc3ccc(-c4cccc(F)c4)cc32)c1` (stereo not drawn) [Example 1, 2-(3-((6-(3-Fluorophenyl)-2,3-dihydro-1H-inden-1-yl)amino)phenoxy)acetic acid]: in test [1], a half-maximal effect (EC50) was put at 11 nM. Further, the figures for the Ki in test [2] and in test [3] were 80 nM and 3050 nM, respectively.
The like results for `CN(c1cccc(OCC(=O)O)c1)C1CCc2ccc(-c3cccc(F)c3)cc21` (stereo not drawn) [Example 3, 2-(3-((6-(3-Fluorophenyl)-2,3-dihydro-1H-inden-1-yl)(methyl)amino)phenoxy)acetic acid] were, in that order, 697 nM, 1810 nM and 7320 nM.
The like results for `CCN(c1cccc(OCC(=O)O)c1)C1CCc2ccc(-c3cccc(F)c3)cc21` (stereo not drawn) [Example 4, 2-(3-(Ethyl(6-(3-fluorophenyl)-2,3-dihydro-1H-inden-1-yl)amino)phenoxy)acetic acid] were, in that order, 8300 nM, 3940 nM and 6640 nM.
`O=C(O)COc1cccc(OC2CCc3ccc(-c4cccc(F)c4)cc32)c1` (stereo not drawn) [Example 5, 2-(3-((6-(3-Fluorophenyl)-2,3-dihydro-1H-inden-1-yl)oxy)phenoxy)acetic acid]: a half-maximal effect in test [1] (EC50) was put at 747 nM. Moreover, the Ki in test [2] came to 144 nM.
`O=C(O)COc1cccc(NC2CCCc3ccc(-c4cccc(F)c4)cc32)c1` (stereo not drawn) [Example 6, 2-(3-((7-(3-Fluorophenyl)-1,2,3,4-tetrahydronaphthalen-1-yl)amino)phenoxy)acetic acid]: the EC50 in test [1] came to 438 nM. Besides, the inhibition constant Ki in test [2] is 104 nM; in test [3] it was 3630 nM.
Turning to `OCCOc1cccc(NC2CCCc3ccc(-c4cccc(F)c4)cc32)c1` (stereo not drawn) [Example 7, 2-(3-((7-(3-Fluorophenyl)-1,2,3,4-tetrahydronaphthalen-1-yl)amino)phenoxy)ethanol], the Ki in test [3] is 6280 nM.
The molecule `O=C(O)COc1cccc(NC2COc3ccc(-c4cccc(F)c4)cc32)c1` (stereo not drawn) [Example 8, 2-(3-((5-(3-Fluorophenyl)-2,3-dihydrobenzofuran-3-yl)amino)phenoxy)acetic acid] returned a half-maximal effective concentration (EC50) in test [1] of 0.6 nM. Also, the Ki in test [2] was found to be 13 nM; in test [3], 7990 nM.
